Results reported in US4192871A, “Chemical compounds” (Glaxo Laboratories Limited, priority 1976, dated 1980).

Assay: anaesthetic activity tests (intravenous administration)
Type: in vivo
Details: compound and salts
From the text: In the tests we have carried out, the compounds of the invention have been shown generally to be good anaesthetics, usually giving instantaneous induction of anaesthesia when administered intravenously. […] The compounds of the invention are of use for inducing anaesthesia which is to be maintained for example by an inhalation anaesthetic, such as ether, halothane, nitrous oxide or trichloroethylene. The compounds may also be capable of maintaining anaesthesia to a sufficient degree to enable surgical operations to be conducted without the aid of an inhalation anaesthetic, the anaesthesia being maintained if necessary by repeated or continuous administration. The compounds may have other desirable central nervous system depressant activities, for example they may be of use as sedatives.

| SMILES | activity shown in our tests (preference grade) | also measured |
| --- | --- | --- |
| CCO[C@H]1C[C@@]2(C)[C@@H](CC[C@@H]3[C@@H]2[C@@H](OC(=O)CNC(C)CC(C)C)C[C@]2(C)[C@@H](C(C)=O)CC[C@@H]32)C[C@@H]1O (stereo partly drawn) [compound 29, 2β-ethoxy-3α-hydroxy-11β-N-1',3'-dimethylbutylaminoacetoxy-5α-pregnan-20-one] | particularly preferred on account of the activity shown in our tests |  |
| CCO[C@H]1C[C@@]2(C)[C@@H](CC[C@@H]3[C@@H]2[C@@H](OC(=O)CN(CC)CC)C[C@]2(C)[C@@H](C(C)=O)CC[C@@H]32)C[C@@H]1O [Example 101, 2β-Ethoxy-11β-diethylaminoacetoxy-3α-hydroxy-5α-pregnan-20-one] |  | activity shown in our tests (preference grade) (listed as Compound No. 6): especially preferred |
| CCCCN(C)CC(=O)O[C@H]1C[C@]2(C)[C@@H](C(C)=O)CC[C@H]2[C@@H]2CC[C@H]3C[C@H](O)CC[C@]3(C)[C@H]21 [Example 111, 11β-(N-Butyl-N-methylaminoacetoxy)-3α-hydroxy-5α-pregnan-20-one] |  | activity shown in our tests (preference grade) (listed as Compound No. 10): especially preferred |
| CC(=O)[C@H]1CC[C@H]2[C@@H]3CC[C@H]4C[C@H](O)CC[C@]4(C)[C@H]3[C@@H](OC(=O)CNCC(C)(C)C)C[C@]12C [Example 34, 11β-N-2',2'-dimethylpropylaminoacetoxy-3α-hydroxy-5α-pregnan-20-one] | particularly preferred on account of the activity shown in our tests |  |
| CCCCN(CC)CC(=O)O[C@H]1C[C@]2(C)[C@@H](C(C)=O)CC[C@H]2[C@@H]2CC[C@H]3C[C@H](O)CC[C@]3(C)[C@H]21 [Example 115, 11β-(N-Butyl-N-ethylaminoacetoxy)-3α-hydroxy-5α-pregnan-20-one] |  | activity shown in our tests (preference grade) (listed as Compound No. 12): especially preferred |
| CCN(CC(=O)O[C@H]1C[C@]2(C)[C@@H](C(C)=O)CC[C@H]2[C@@H]2CC[C@H]3C[C@H](O)CC[C@]3(C)[C@H]21)C(C)CC(C)C (stereo partly drawn) [compound 23, 11β-N-1',3'-dimethylbutyl-N-ethylaminoacetoxy-3α-hydroxy-5α-pregnan-20-one] | particularly preferred on account of the activity shown in our tests |  |
